According to patent publication US11167059B2, “Compositions with reactive ingredients, and wound dressings, apparatuses, and methods” (KCI Licensing, Inc., priority 2010, dated 2021):

Tests used:
Format in all cases: cell-based
[1] = test system: C. alb.; test: Log reduction, single cycle, C. alb.; conditions: for ΔLog - C. alb. 30 sec.: 30 sec. exposure; for ΔLog - C. alb. 5 min.: 5 min. exposure
Description: (§1) Referring now to FIG. 17, the experiments described above for FIG. 14 were also performed with additional foams, one foam in which 1 gram of Calcium hypochlorite salt was infused (D100, shown as left column for each cycle), and one foam in which 2 grams of Calcium hypochlorite salt was dispersed (D200, shown as right column for each cycle). […] As discussed additionally below, the minimum concentration is significant because testing identified concentrations of hypochlorite-ion as low as 0.5-0.7 mM to have effective antibacterial and antimicrobial properties. Additional testing was performed to measure the zone of inhibition (ZOI) and Log Reduction of microbes for various samples of released aqueous solutions having various concentrations of hypochlorite ion, as listed in Tables 2 and 3. Table 2 lists ZOI and Log reduction data for a single cycle measured at hold times (exposure duration) of 30 seconds and 5 minutes of bacterial exposure to solution. Table 3 lists ZOI and Log reduction data for multiple cycles (each cycle including introduction of hypochlorite solution, and removal of solution prior to beginning next cycle). In the ZOI experimentation, foam discs having a diameter of 8 millimeters (mm) and a height of 5 mm were each saturated with hypochlorite-ion solution as indicated. Table 3 also lists the initial microbe count in log form (10^X, where X is listed in Table 2), log reduction in microbe count, and ZOI in mm. For the data of Table 3, the initial concentration (1×) of hypochlorite ion in solution was 5.7 mM of hypochlorite ion, which corresponds to 0.041% w/v of Ca(OCl)^2. In the Log reduction experimentation, the microbes were exposed to the respective concentration of solution for 30 seconds per cycle. […] The bold entries in Table 3 are indicative of substantially all microbes being killed. In the biofilm eradication cycles listed in Table 6 below, probes were cultured with microbes and incubated to permit formation of a biofilm on the probe. The probe was then exposed to solutions having various concentrations of Calcium hypochlorite solution for multiple cycles, with each cycle including exposure of the probe to solution for a duration of 5 minutes.

[2] = test system: MRSA; test: zone of inhibition (ZOI), foam discs saturated with solution, MRSA; conditions: 8 mm foam disc saturated with solution
Description: as §1

[3] = test system: Staphylococcus aureus ATCC 10832; test: Log reduction, multiple cycles, S. aureus ATCC 10832; conditions: 30 seconds per cycle
Description: as §1

[4] = test system: Staphylococcus aureus USA 400 (MRSA); test: Log reduction, multiple cycles, S. aureus USA 400 (MRSA); conditions: 30 seconds per cycle
Description: as §1

[5] = test system: Staphylococcus aureus USA 400 (MRSA); test: Minimum Inhibitory Concentration (MIC), S. aureus USA 400 (MRSA); conditions: % w/v Ca(OCl)2 in water
[6] = test system: Pseudomonas aeruginosa ATCC 27853; test: Minimum Bactericidal Concentration (MBC), P. aeruginosa; conditions: % w/v Ca(OCl)2 in water
Description: as §1, with “The probe was then exposed to solutions having various concentrations of Calcium hypochlorite solution for multiple cycles, with each cycle including exposure of the probe to solution for a duration of 5 minutes.” left out

[7] = test system: Staphylococcus aureus ATCC 10832; test: Minimum Bactericidal Concentration (MBC), S. aureus ATCC 10832; conditions: % w/v Ca(OCl)2 in water
Description: as §1, with “The probe was then exposed to solutions having various concentrations of Calcium hypochlorite solution for multiple cycles, with each cycle including exposure of the probe to solution for a duration of 5 minutes.” left out

[8] = test system: Staphylococcus aureus USA 400 (MRSA); test: Minimum Bactericidal Concentration (MBC), S. aureus USA 400 (MRSA); conditions: % w/v Ca(OCl)2 in water
Description: as §1, with “The probe was then exposed to solutions having various concentrations of Calcium hypochlorite solution for multiple cycles, with each cycle including exposure of the probe to solution for a duration of 5 minutes.” left out

[9] = test system: Pseudomonas aeruginosa ATCC 27853; test: Minimum Biofilm Eradication Concentration (MBEC), P. aeruginosa; conditions: Pseudomonas aeruginosa ATCC 27853 biofilm on probe, 5 minutes per cycle, % w/v Ca(OCl)2
Description: as §1, with “The probe was then exposed to solutions having various concentrations of Calcium hypochlorite solution for multiple cycles, with each cycle including exposure of the probe to solution for a duration of 5 minutes.” left out

[10] = test system: Staphylococcus aureus ATCC 10832; test: Minimum Biofilm Eradication Concentration (MBEC), S. aureus ATCC 10832; conditions: Staphylococcus aureus ATCC 10832 biofilm on probe, 5 minutes per cycle, % w/v Ca(OCl)2
Description: as §1, with “The probe was then exposed to solutions having various concentrations of Calcium hypochlorite solution for multiple cycles, with each cycle including exposure of the probe to solution for a duration of 5 minutes.” left out

[11] = test system: Staphylococcus aureus USA 400 (MRSA); test: Minimum Biofilm Eradication Concentration (MBEC), S. aureus USA 400 (MRSA); conditions: Staphylococcus aureus USA 400 (MRSA) biofilm on probe, 5 minutes per cycle, % w/v Ca(OCl)2
Description: as §1, with “The probe was then exposed to solutions having various concentrations of Calcium hypochlorite solution for multiple cycles, with each cycle including exposure of the probe to solution for a duration of 5 minutes.” left out

[12] = test system: microbes; test: antibacterial and antimicrobial testing of hypochlorite-ion concentrations (summary statements)
Description: Referring now to FIG. 17, the experiments described above for FIG. 14 were also performed with additional foams, one foam in which 1 gram of Calcium hypochlorite salt was infused (D100, shown as left column for each cycle), and one foam in which 2 grams of Calcium hypochlorite salt was dispersed (D200, shown as right column for each cycle). […] As discussed additionally below, the minimum concentration is significant because testing identified concentrations of hypochlorite-ion as low as 0.5-0.7 mM to have effective antibacterial and antimicrobial properties. Additional testing was performed to measure the zone of inhibition (ZOI) and Log Reduction of microbes for various samples of released aqueous solutions having various concentrations of hypochlorite ion, as listed in Tables 2 and 3. Table 2 lists ZOI and Log reduction data for a single cycle measured at hold times (exposure duration) of 30 seconds and 5 minutes of bacterial exposure to solution. Table 3 lists ZOI and Log reduction data for multiple cycles (each cycle including introduction of hypochlorite solution, and removal of solution prior to beginning next cycle). In the ZOI experimentation, foam discs having a diameter of 8 millimeters (mm) and a height of 5 mm were each saturated with hypochlorite-ion solution as indicated. […]

[13] = Sample Dilution 1x (5.7 mM hypochlorite ion, 0.041% w/v Ca(OCl)2)
[14] = Sample Dilution 2x of 5.7 mM hypochlorite ion
[15] = Sample Dilution 4x of 5.7 mM hypochlorite ion
[16] = Sample Dilution 8x of 5.7 mM hypochlorite ion (lowest concentration, 0.7 mM)

hypochlorite ion [OCl^− Solutions]
ΔLog - C. alb. 30 sec. ([1]; 0.8 mM HOCl/OCl−): 2.87 | ΔLog - C. alb. 5 min. ([1]; 0.8 mM HOCl/OCl−): >7.18 | ΔLog - C. alb. 30 sec. ([1]; 1.9 mM HOCl/OCl−): 2.94 | ΔLog - C. alb. 5 min. ([1]; 1.9 mM HOCl/OCl−): 3.77 | ΔLog - C. alb. 30 sec. ([1]; 3.1 mM HOCl/OCl−): 3.08 | ΔLog - C. alb. 5 min. ([1]; 3.1 mM HOCl/OCl−): >7.18 | ΔLog - C. alb. 30 sec. ([1]; 4.0 mM HOCl/OCl−): 3.94 | ΔLog - C. alb. 5 min. ([1]; 4.0 mM HOCl/OCl−): >7.18 | ΔLog - C. alb. 30 sec. ([1]; 10.7 mM HOCl/OCl−): 7.18 | ΔLog - C. alb. 5 min. ([1]; 10.7 mM HOCl/OCl−): >7.18 | ΔLog - C. alb. 30 sec. ([1]; 15.7 mM HOCl/OCl−): 3.50 | ΔLog - C. alb. 5 min. ([1]; 15.7 mM HOCl/OCl−): >7.18 | ZOI, D in mm MRSA ([2]; 0.8 mM HOCl/OCl−): 0.0 mm | ZOI, D in mm MRSA ([2]; 1.9 mM HOCl/OCl−): 0.0 mm | ZOI, D in mm MRSA ([2]; 3.1 mM HOCl/OCl−): 0.0 mm | ZOI, D in mm MRSA ([2]; 4.0 mM HOCl/OCl−): 0.0 mm | ZOI, D in mm MRSA ([2]; 10.7 mM HOCl/OCl−): 13.0 mm | ZOI, D in mm MRSA ([2]; 15.7 mM HOCl/OCl−): 13.0 mm | Log Reduction Staphylococcus aureus ATCC 10832 1 Cycle [3, 13]: 3.21 | Log Reduction Staphylococcus aureus ATCC 10832 3 Cycles [3, 13]: 2.82 | Log Reduction Staphylococcus aureus ATCC 10832 5 Cycles [3, 13]: 2.66 | Log Reduction Staphylococcus aureus ATCC 10832 1 Cycle [3, 14]: 3.21 | Log Reduction Staphylococcus aureus ATCC 10832 3 Cycles [3, 14]: 2.82 | Log Reduction Staphylococcus aureus ATCC 10832 5 Cycles [3, 14]: 2.66 | Log Reduction Staphylococcus aureus ATCC 10832 1 Cycle [3, 15]: 3.21 | Log Reduction Staphylococcus aureus ATCC 10832 3 Cycles [3, 15]: 2.82 | Log Reduction Staphylococcus aureus ATCC 10832 5 Cycles [3, 15]: 2.66 | Log Reduction Staphylococcus aureus ATCC 10832 1 Cycle [3, 16]: 3.21 | Log Reduction Staphylococcus aureus ATCC 10832 3 Cycles [3, 16]: 2.82 | Log Reduction Staphylococcus aureus ATCC 10832 5 Cycles [3, 16]: 2.66 | Log Reduction Staphylococcus aureus USA 400 (MRSA) 1 Cycle [4, 13]: 4.15 | Log Reduction Staphylococcus aureus USA 400 (MRSA) 3 Cycles [4, 13]: 3.63 | Log Reduction Staphylococcus aureus USA 400 (MRSA) 5 Cycles [4, 13]: 3.91 | Log Reduction Staphylococcus aureus USA 400 (MRSA) 1 Cycle [4, 14]: 4.15 | Log Reduction Staphylococcus aureus USA 400 (MRSA) 3 Cycles [4, 14]: 3.63 | Log Reduction Staphylococcus aureus USA 400 (MRSA) 5 Cycles [4, 14]: 3.91 | Log Reduction Staphylococcus aureus USA 400 (MRSA) 1 Cycle [4, 15]: 4.15 | Log Reduction Staphylococcus aureus USA 400 (MRSA) 3 Cycles [4, 15]: 3.63 | Log Reduction Staphylococcus aureus USA 400 (MRSA) 5 Cycles [4, 15]: 3.91 | Log Reduction Staphylococcus aureus USA 400 (MRSA) 1 Cycle [4, 16]: 4.15 | Log Reduction Staphylococcus aureus USA 400 (MRSA) 3 Cycles [4, 16]: 3.63 | Log Reduction Staphylococcus aureus USA 400 (MRSA) 5 Cycles [4, 16]: 3.91 | Minimum Inhibitory Concentration (MIC) 1 Cycle ([5]; 1 Cycle): <0.005% w/v | Minimum Inhibitory Concentration (MIC) 3 Cycles ([5]; 3 Cycles): <0.005% w/v | Minimum Inhibitory Concentration (MIC) 5 Cycles ([5]; 5 Cycles): <0.005% w/v | Minimum Bactericidal Concentration (MBC) 1 Cycle ([6]; 1 Cycle): <0.005% w/v | Minimum Bactericidal Concentration (MBC) 3 Cycles ([6]; 3 Cycles): <0.005% w/v | Minimum Bactericidal Concentration (MBC) 5 Cycles ([6]; 5 Cycles): <0.005% w/v | Minimum Bactericidal Concentration (MBC) 1 Cycle ([7]; 1 Cycle): <0.005% w/v | Minimum Bactericidal Concentration (MBC) 3 Cycles ([7]; 3 Cycles): <0.005% w/v | Minimum Bactericidal Concentration (MBC) 5 Cycles ([7]; 5 Cycles): <0.005% w/v | Minimum Bactericidal Concentration (MBC) 1 Cycle ([8]; 1 Cycle): <0.005% w/v | Minimum Bactericidal Concentration (MBC) 3 Cycles ([8]; 3 Cycles): <0.005% w/v | Minimum Bactericidal Concentration (MBC) 5 Cycles ([8]; 5 Cycles): <0.005% w/v | Minimum Biofilm Eradication Concentration (MBEC) 1 Cycle ([9]; 1 Cycle): >0.041% w/v | Minimum Biofilm Eradication Concentration (MBEC) 3 Cycles ([9]; 3 Cycles): 0.021% w/v | Minimum Biofilm Eradication Concentration (MBEC) 5 Cycles ([9]; 5 Cycles): 0.041% w/v | Minimum Biofilm Eradication Concentration (MBEC) 1 Cycle ([10]; 1 Cycle): <0.005% w/v | Minimum Biofilm Eradication Concentration (MBEC) 3 Cycles ([10]; 3 Cycles): <0.005% w/v | Minimum Biofilm Eradication Concentration (MBEC) 5 Cycles ([10]; 5 Cycles): <0.005% w/v | Minimum Biofilm Eradication Concentration (MBEC) 1 Cycle ([11]; 1 Cycle): <0.005% w/v | Minimum Biofilm Eradication Concentration (MBEC) 3 Cycles ([11]; 3 Cycles): <0.005% w/v | Minimum Biofilm Eradication Concentration (MBEC) 5 Cycles ([11]; 5 Cycles): <0.005% w/v | lowest concentrations identified to have effective antibacterial and antimicrobial properties [12]: 0.5 to 0.7 mM | killing of microbes in Log reduction experimentation ([12]; five (5) cycles at the lowest concentration (0.7 mM), 30 seconds per cycle): killed substantially all microbes present
